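Method: 48-hour compound exposure of cells in 96-well plates, five concentrations, linear interpolation of endpoints. Here, GI50 denotes the concentration required for 50% inhibition of growth. TGI is the concentration that stops growth completely.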
Tests used:
Experiment in all cases: inhibition of tumour cell growth, NCI panel, 48 h
[1] = test system: EKVX NSCLC
[2] = test system: RPMI-8226 leukemia
[3] = test system: SR leukemia
[4] = test system: NCI-H522 lung
[5] = test system: SN12C renal
[6] = test system: SNB-19 CNS
[7] = test system: MCF7 breast
[8] = test system: ACHN renal
[9] = test system: SW-620 colon
[10] = test system: NCI/ADR-RES ovarian
[11] = test system: SK-MEL-2 melanoma
[12] = test system: TK-10 renal
[13] = test system: HCT-15 colon
[14] = test system: PC-3 prostate
[15] = test system: NCI-H226 lung
[16] = test system: HCC-2998 colon
[17] = test system: SNB-75 CNS
[18] = test system: COLO 205 colon
[19] = test system: DU-145 prostate
[20] = test system: HL-60(TB) leukemia
[21] = test system: UACC-257 melanoma
[22] = test system: SF-295 CNS
[23] = test system: KM12 colon
[24] = test system: HOP-62 NSCLC
[25] = test system: MALME-3M melanoma
[26] = test system: NCI-H23 lung
[27] = test system: OVCAR-8 ovarian
[28] = test system: UO-31 renal
[29] = test system: T-47D breast
[30] = test system: RXF 393 renal
[31] = test system: SK-OV-3 ovarian
[32] = test system: HS 578T breast
[33] = test system: SF-268 CNS
[34] = test system: M14 melanoma
[35] = test system: HT29 colon
[36] = test system: A549 NSCLC
[37] = test system: A498 renal
[38] = test system: MDA-MB-231 breast
[39] = test system: LOX IMVI melanoma
[40] = test system: BT-549 breast
[41] = test system: OVCAR-4 ovarian
[42] = test system: HCT-116 colon
[43] = test system: IGROV1 ovarian
[44] = test system: OVCAR-5 ovarian
[45] = test system: UACC-62 melanoma
[46] = test system: SK-MEL-5 melanoma
[47] = test system: SK-MEL-28 melanoma
[48] = test system: K-562 leukemia
[49] = test system: MDA-MB-435
[50] = test system: CCRF-CEM leukemia
[51] = test system: MOLT-4 leukemia
[52] = test system: CAKI-1 renal
[53] = test system: U251 CNS
[54] = test system: OVCAR-3 ovarian
[55] = test system: SF-539 CNS
[56] = test system: NCI-H460 lung
[57] = test system: HOP-92 NSCLC
[58] = test system: 786-0 renal

**Q.** What does the source list for `COc1cc(C(=O)/C=C/c2c(C)n([O-])c3ccc(C(F)(F)F)cc3[n+]2=O)cc(OC)c1OC`?
**A.** GI50 [1]: 21.4 µM; TGI [1]: > 100 µM; GI50 [2]: 5.23 µM; TGI [2]: 48.9 µM; GI50 [3]: 2.67 µM; TGI [3]: > 100 µM; GI50 [4]: 0.232 µM; TGI [4]: 0.784 µM; GI50 [5]: 6.89 µM; TGI [5]: > 100 µM; GI50 [6]: 36.1 µM; TGI [6]: > 100 µM; GI50 [7]: 4.26 µM; TGI [7]: 17.3 µM; GI50 [8]: 1.49 µM; TGI [8]: 3.82 µM; GI50 [9]: 0.68 µM; TGI [9]: 2.04 µM; GI50 [10]: 3.54 µM; TGI [10]: 97.7 µM; GI50 [11]: 4 µM; TGI [11]: 13.5 µM; GI50 [12]: 1.41 µM; TGI [12]: 2.82 µM; GI50 [13]: 3.55 µM; TGI [13]: 24.2 µM; GI50 [14]: 6.41 µM; TGI [14]: > 100 µM; GI50 [15]: 15.1 µM; TGI [15]: > 57.7 µM; GI50 [16]: 15.5 µM; TGI [16]: 35.7 µM; GI50 [17]: 10.9 µM; TGI [17]: 24.6 µM; GI50 [18]: 1.43 µM; TGI [18]: 2.88 µM; GI50 [19]: 4.11 µM; TGI [19]: 14.3 µM; GI50 [20]: 2.92 µM; TGI [20]: 7.89 µM; GI50 [21]: 1.78 µM; TGI [21]: 3.94 µM; GI50 [22]: 26.2 µM; TGI [22]: > 90.7 µM; GI50 [23]: 13.5 µM; TGI [23]: 34.3 µM; GI50 [24]: 25.2 µM; TGI [24]: > 100 µM; GI50 [25]: 1.74 µM; TGI [25]: 4.19 µM; GI50 [26]: 3.8 µM; TGI [26]: 15.1 µM; GI50 [27]: 2.99 µM; TGI [27]: > 31.1 µM; GI50 [28]: 1.45 µM; TGI [28]: 3.51 µM; GI50 [29]: 2.15 µM; TGI [29]: 7.83 µM; GI50 [30]: 1.44 µM; TGI [30]: 2.86 µM; GI50 [31]: 27.1 µM; TGI [31]: > 100 µM; GI50 [32]: 7.55 µM; TGI [32]: > 77.8 µM; GI50 [33]: 12.8 µM; TGI [33]: 37.4 µM; GI50 [34]: 2.42 µM; TGI [34]: 8.46 µM; GI50 [35]: 1.69 µM; TGI [35]: 3.99 µM; GI50 [36]: 19.8 µM; TGI [36]: > 93.3 µM; GI50 [37]: 14.5 µM; TGI [37]: 51.7 µM; GI50 [38]: 8.54 µM; TGI [38]: > 79.3 µM; GI50 [39]: 0.77 µM; TGI [39]: 2.66 µM; GI50 [40]: 8.34 µM; TGI [40]: 25.6 µM; GI50 [41]: 7.1 µM; TGI [41]: > 100 µM; GI50 [42]: 0.83 µM; TGI [42]: 2.51 µM; GI50 [43]: 7.54 µM; TGI [43]: 48.4 µM; GI50 [44]: 15.2 µM; TGI [44]: > 83.4 µM; GI50 [45]: 3.62 µM; TGI [45]: 13.8 µM; GI50 [46]: 17.6 µM; TGI [46]: > 57.3 µM; GI50 [47]: 7.62 µM; TGI [47]: 23.6 µM; GI50 [48]: 1.65 µM; TGI [48]: 5.85 µM; GI50 [49]: 3.15 µM; TGI [49]: 15.8 µM; GI50 [50]: 0.564 µM; TGI [50]: > 100 µM; GI50 [51]: 1.75 µM; TGI [51]: 5.11 µM; GI50 [52]: 3.32 µM; TGI [52]: > 38.1 µM; GI50 [53]: 8.83 µM; TGI [53]: 24.1 µM; GI50 [54]: 1.37 µM; TGI [54]: 3.07 µM; GI50 [55]: 3.7 µM; TGI [55]: 15 µM; GI50 [56]: 10.7 µM; TGI [56]: 29.1 µM; GI50 [57]: 3.04 µM; TGI [57]: 21.3 µM; GI50 [58]: 1.96 µM; TGI [58]: 4.31 µM

— PubChem BioAssay (NCI)
